Assay results as given in US6331548A, “1-cycloalkyl-1,8-naphthyridin-4-one derivative as type IV phosphodiesterase inhibitor” (Suntory Limited, priority 1998, dated 2001).

Experiments:
[1] = target: type IV phosphodiesterase; assay: Type IV phosphodiesterase inhibiting activity; format: biochemical, human; conditions: U937 type IV phosphodiesterase fraction, 0.28 μM cAMP, pH 7.5, 30° C., 30 minutes; read-out: PDEIV-IC50
Method: The following assay was used to evaluate the ability of the compound of the present invention to suppress type IV phosphodiesterase, according to Biochemical. Pharmacol. 48 (6), 1219-1223 (1994).
1) Type IV phosphodiesterase activity fractions were prepared as follows. Namely, human histiocytic lymphoma cell line U937 was cultured in an RPMI1640 medium containing 10% fetal calf serum to obtain 10^9 cells of U937. The cells were recovered by centrifugation and suspended in 40 ml of buffer A (20 mM bis-tris, 5 mM 2-mercaptoethanol, 2 mM benzamidine, 2 mM EDTA, 0.1 mM 4-(2-aminoethyl)benzensulfonyl hydrochloride, 50 mM sodium acetate, pH=6.5). The cells were broken by a sonication and centrifuged (4° C., 10,000 G, 10 minutes) to obtain a supernatant. This was filtered by a 0.45 μm filter to obtain the soluble fraction.
2) The soluble fraction obtained was applied into a 1×10 cm DEAE Sepharose column equalibrated with the buffer A. 120 ml of the buffer A containing a linear gradient solution of 0.05 to 1M sodium acetate was used to separate the phosphodiesterase and recover 24 5-ml fractions. Each of the fractions was measured for the cAMP phosphodiesterase activity.
3) The test compound was reacted at a desired concentration in a reaction mixture containing 20 mM tris-HCl (pH 7.5), 1 mM MgCl2, 100 μM EDTA, 330 μg/ml calf serum albumin, 10 μg/ml 5'-nucleotidase, 0.4 μCi ^3 H-cAMP (0.28 μM cAMP) and the type IV phosphodiesterase stored solution at 30° C. for 30 minutes. QAE-Sephadex suspended in 10 mM of hepes-Na (pH -7.0) was added to the reaction mixture which was then allowed to stand for 5 minutes, then the supernatant was obtained, QAE-Sephadex was further added, to the supernatant, and was allowed to stand for 5 minutes, then the supernatant was obtained and measured for radioactivity.

[2] = test system: TNF-α production by LPS stimulated macrophages; assay: TNF-α production inhibitory activity by LPS stimulated macrophages; format: cell-based; conditions: Macrophage, BALB/c mouse peritoneal macrophages, cultured for 8 hours, ELISA
Method: The following assay was used to evaluate the ability of the compound of the present invention to suppress TNF-α production by LPS stimulated macrophages according to Immunopharmacol. 29, 121-127 (1995).
1) 6 to 10 week old female BALB/c mice were used, 2 ml portions of thioglycolate were intraperitoneally administered, and the abdominal cavities were washed by 10 ml of PBS after 4 days, whereby 1 to 2×10^7 peritoneal cells were obtained per mouse. These were suspended in a hemocyte solution (0.75% ammonium chloride, 17 mM tris-hydrochlorate buffer, pH7.2), centrifuged, then resuspended in an RPMI1640 medium including 10% fetal calf serum and seeded in a 96-well cell culture plate at a density of 1×10^5 cells/50 μl/well. Since these cells adhered strongly to the tissue culture plate and were positive in nonspecific esterase staining, they were used for the test as mouse peritoneal macrophages. Mouse peritoneal macrophages were precultured overnight at 37° C. in […] for the experiment.
2) E. Coli (serum type 055:B5) derived LPS was dissolved in PBS in a concentration of 1 mg/ml, then sterilized by filtration. The test compound was dissolved in DMSO to make a 1000-fold concentration solution of the final concentration of use. 10 μl of the above LPS stock solution (final concentration 10 μg/ml) and 1 μl of the tested substance stock solution were added and mixed in 0.5 ml of RPMI1640 medium containing 10% fetal calf serum. This was added to the above cells at 50 μl/well and cultured for 8 hours. The cultured supernatant was recovered from each well and the TNF-α concentration was measured by the ELISA method (Cytoscreen® Immunoassay Kit Mouse TNF-α, BioSourse International).
The comparative example was the compound described in WO-A-97-04775, Example 1, mentioned above.

| IC50 [1] | IC50 [2] | SMILES |
| --- | --- | --- |
| 54 nM | 300 nM | COC(=O)N1CC[C@@H](n2cc(C(=O)Nc3c(Cl)cccc3Cl)c(=O)c3cccnc32)C1 [Example 16, (R)-N-(2,6-dichlorophenyl)-1-(1-methoxycarbonylpyrrolidin-3-yl)-1,4-dihydro[1,8]naphthyridin-4-one-3-carboxamide] |
| 6.7 nM | 10 nM | CN1CCN(n2cc(C(=O)Nc3c(Cl)cncc3Cl)c(=O)c3cccnc32)CC1 [Example 55, N-(3,5-dichloropyridin-4-yl)-1-(4-methylpiperazine-1-yl)-1,4-dihydro[1,8]naphthylidin-4-one-3-carboxamide] |
| 41 nM | 78 nM | O=C(Nc1ccncc1)c1cn(C2CCCC2)c2ncccc2c1=O [Example 149, N-(4-pyridyl)-1-cyclopentyl-1,4-dihydro[1,8]naphthylidin-4-one-3-carboxamide] |
| 5200 nM | 10000 nM | CCn1cc(C(=O)NCCc2ccncc2)c(=O)c2ccc(C)nc21 [Comp. Ex., N-(2-(4-pyridyl)ethyl)-1-ethyl-7-methyl-1,8-naphthyridin-1,4-dihydro-4-one-3-carboxyamide, reference compound] |
| 2200 nM | 4000 nM | COC(=O)N1CC(n2cc(C(=O)Nc3cccnc3)c(=O)c3cccnc32)C1 [Example 32, N-(3-pyridyl)-1-(1-methoxycarbonylazetidin-3-yl)-1,4-dihydro[1,8]naphthylidin-4-one-3-carboxamide] |
| 23 nM | 100 nM | COC(=O)N1CC[C@H](n2cc(C(=O)Nc3c(Cl)cccc3Cl)c(=O)c3cccnc32)C1 [Example 9, (S)-N-(2,6-dichlorophenyl)-1-(1-methoxycarbonylpyrrolidin-3-yl)-1,4-dihydro[1,8]naphthyridin-4-one-3-carboxamide] |
| 16 nM | 200 nM | O=C(Nc1c(Cl)cncc1Cl)c1cn(C2CCS(=O)(=O)CC2)c2ncccc2c1=O [Example 102 (Sulfon), N-(3,5-dichloropyridin-4-yl)-1-(1,1-dioxotetrahydrothiopyran-4-yl)-1,4-dihydro[1,8]naphthylidin-4-one-3-carboxamide] |
| 6.3 nM | 7 nM | CNC(=S)N1CC[C@H](n2cc(C(=O)Nc3c(Cl)cncc3Cl)c(=O)c3cccnc32)C1 [Example 19, (S)-N-(3,5-dichloropyridin-4-yl)-1-(1-methylaminothiocarbonylpyrrolidin-3-yl)-1,4-dihydro[1,8]naphthylidin-4-one-3-carboxamide] |
| 5.1 nM | 70 nM | O=C(Nc1c(Cl)cncc1Cl)c1cn(C2CC[S+]([O-])CC2)c2ncccc2c1=O (centres unmarked) [Example 102 (Sulfoxide), N-(3,5-dichloropyridin-4-yl)-1-(1-oxotetrahydrothiopyran-4-yl)-1,4-dihydro[1,8]naphthylidin-4-one-3-carboxamide] |
| 10 nM | 5000 nM | O=C(Nc1c(Cl)cncc1Cl)c1cn([C@@H]2CCOC2)c2ncccc2c1=O [Example 39, N-(3,5-dichloropyridin-4-yl)-1-[(R)-tetrahydro-3-furanyl]-1,4-dihydro[1,8]naphthylidin-4-one-3-carboxamide] |
| 0.4 nM | 3 nM | O=C(Nc1c(Cl)cncc1Cl)c1cn(C2CCSCC2)c2ncccc2c1=O [Example 101, N-(3,5-dichloropyridin-4-yl)-1-(4-tetrahydrothiopyranyl)-1,4-dihydro[1,8]naphthylidin-4-one-3-carboxamide] |
| 390 nM | 1200 nM | O=C1CCC(n2cc(C(=O)Nc3ccncc3Cl)c(=O)c3cccnc32)CC1 [Example 123, N-(3-chloropyridin-4-yl)-1-(4-oxocyclohexyl)-1,4-dihydro[1,8]naphthylidin-4-one-3-carboxamide] |
| 22 nM | 200 nM | O=C(CN1CCC(n2cc(C(=O)Nc3c(Cl)cncc3Cl)c(=O)c3cccnc32)CC1)OCc1ccccc1 [Example 49, benzyl 2-{4-[3-[(3,5-dichloropyridin-4-yl)amino]carbonyl-1,4-dihydro[1,8]naphthylidin-4-one-1-yl]piperidino}acetate] |
